Measurements as given in US20100297123A1, “COMBINATION THERAPY TO INHIBIT T CELL EFFECTOR FUNCTION” (priority 2009, published 2010).

Tests used:
effector CD4 T cells = assay: CFSE proliferation assay of mouse effector CD4 T cells; type: cell-based; conditions: effector CD4 T cells stimulated with anti-CD3/28 and drug(s), FIG. 12B
Procedure: Proliferation and cell division assays. Cells cultured in 96-well U-bottom plate wells were pulsed with 1 μCi of methyl-[^3H]thymidine (Amersham Biosciences) for 6 h during the last 72 h of stimulation and harvested onto filters (Wallac). Filters were wetted with Betaplate Scintillation fluid (PerkinElmer) and counts per minute read on a 1205 Betaplate Liquid Scintillation Counter (Wallac). For CFSE experiments, cells were labeled with 1 μM CFDA-SE (Sigma-Aldrich) in serum free RPMI 1640 medium for 10 min and washed twice before culturing. CFSE-labeled cells were assayed after 72 h of culture.
GRAIL is expressed during quiescence, lost upon activation. Naïve CD4 T cells were isolated from mouse and stimulated with anti-CD3 and anti-CD28 antibodies in vitro for the indicated number of hours (FIG. 10). Protein was collected and run by Western blot probing for GRAIL and β-actin. Effector CD4 T cells were made by first isolating from naïve mice, then stimulating with anti-CD3/28 for 3 days, split off and rested for 2 more days, then washed and put in fresh media for 2 additional days. Live CD4 T cells were then collected, shown to be at rest, and then activated in the same manner as described above. Protein samples were isolated and probed with anti-GRAII antibody as described in Example 1.
Shown in FIG. 12A, naïve CD4 T cells were labeled with CFSE, a dye that dilutes out with successive cell divisions. The naïve CD4 T cells were stimulated with anti-CD3/28 and the indicated drug(s) and CFSE profiles assessed after 3 days. […] A similar experiment was performed with effector CD4 T cells, prepared as described above.

mouse naive CD4 T cells = assay: CFSE cell division assay of mouse naive CD4 T cells; type: cell-based; conditions: anti-CD3/28 stimulation, CFSE profiles after 3 days
Excerpt: Isolation and stimulation of mouse CD4 T cells. Spleen and lymph nodes were harvested from naive mice and homogenized through a strainer. RBC were lysed from the suspension using red blood cell lysing buffer (Sigma-Aldrich). Lymphocytes were isolated by density centrifugation using Lympholyte-M (Cedarlane Laboratories). CD4+ T cells were sorted via negative selection using an AutoMACS sorter (Miltenyi Biotec). BALB/c CD4+ T cells (5×103) were stimulated in 96-well U-bottom plates with equal numbers of polystyrene latex beads (Interfacial Dynamics) coated with 1.0 μg/ml anti-CD3 (145-2C11; eBioscience) and 0.5 μg/ml anti-CD28 (37.51; eBioscience). […] Anti-IL-2 Ab (JES6-1A12; eBioscience) was used at a concentration of 10 μg/ml. Cells were cultured in RPMI 1640 medium (Life Technologies) supplemented with 10% heat-inactivated FCS (Mediatech), 100 nM sodium pyruvate (Life Technologies), 2 mM L-glutamine (Life Technologies), 100 nM nonessential amino acids (Life Technologies), 100 U/ml penicillin/streptomycin (Life Technologies), and 5 nM 2-ME (Sigma-Aldrich). […]

GRAIL = GRAIL western blot of effector CD4 T cells; type: cell-based, mouse; conditions: effector CD4 T cells stimulated with anti-CD3/28, western blot, FIG. 12C
Procedure: Immunoblots. Whole-cell lysates were made using lysis buffer consisting of 0.5% Nonidet P-40, 100 mM sodium chloride, 0.5 mM EDTA, 20 mM Tris (pH 7.6-8.0), with protease inhibitor mixture (Pierce) and phosphatase inhibitor mixture (Pierce). Protein samples were loaded on 4-15% Tris-HCl gels (Bio-Rad) and separated by SDS-PAGE. Protein was transferred from gel to Immobolin-P polyvinylidene difluoride membrane (Millipore) using Trans-Blot SD Semidry Transfer Apparatus (Bio-Rad) following the manufacturer's instructions. StartingBlock (Tris-buffered saline with 0.05% Tween 20) (Pierce) was used to block membranes and was also used during primary and secondary Ab staining. Secondary Abs were all HRP conjugated (Zymed Laboratories). ECL Plus Western Blotting Reagents (GE Healthcare) were used for chemiluminescent detection of protein. Chemiluminescence signal was exposed onto Amersham Hyperfilm ECL (GE Healthcare). Membranes were stripped using Restore Western Blot Stripping Buffer (Pierce). Densitometry was performed using ImageJ software (National Institutes of Health). […]

SMILES	proliferation of effector CD4 T cells (CFSE) (effector CD4 T cells)	cell division / proliferation by CFSE dilution (mouse naive CD4 T cells)	GRAIL retention in effector CD4 T cells (GRAIL)
CC(=O)O[C@@H]1[C@@H](OC(C)=O)[C@@H](O)[C@H](Oc2c(-c3ccc(O)cc3)oc3cc(O)cc(O)c3c2=O)O[C@H]1C [SL0101]	does not work alone	–	–
N#CC(=C(/N)Sc1ccccc1N)/C(C#N)=C(\N)Sc1ccccc1N [U0126]	does not inhibit proliferation	inhibits proliferation	does not lead to GRAIL retention
O=C(NOCC(O)CO)c1ccc(F)c(F)c1Nc1ccc(I)cc1F (centres unmarked) [PD0325901, N-(2,3-dihydroxypropoxy)-3,4-difluoro-2-(2-fluoro-4-iodophenylamino)benzamide]	does not work alone	–	–
